Measured values: PubChem BioAssay AID288 (DTP/NCI, 2004)
Values joined by “and” are separate entries in the source; they are usually repeats but may differ in a detail not shown here. Equal entries are not always repeated. Results filed as inconclusive are left out.

System: BDF1 mice, M5076 sarcoma s.c., survival/tumor T/C
Assay: NCI In Vivo Anticancer Drug Screen. Data for tumor model Sarcoma M5076 (subcutaneous) in B6D2F1 (BDF1) mice
Experimental: The antitumor activity of compounds was measured in mice bearing transplantable tumors. Survival or tumor size were measured and the results are expressed as the measurement made in the treated group (T) divided by the measurement made in the vehicle treated control group (C). The tumor model used in this assay is Sarcoma M5076 (subcutaneous) in B6D2F1 (BDF1) mice

**Q.** How did the T/C (endpoint: median survival time, dose: 1.5 mg/kg/injection, schedule: Q02DX030 (ip), vehicle: saline with Tween-80, higher = longer survival) turn out when `O=C(O)CCCc1ccc(N(CCCl)CCCl)cc1` was run?
**A.** 158 % of control

**Q.** And the T/C (endpoint: median survival time, dose: 3.0 mg/kg/injection, schedule: Q02DX030 (ip), vehicle: saline with Tween-80, higher = longer survival)?
**A.** 194 % of control

**Q.** And the T/C (endpoint: median survival time, dose: 3.0 mg/kg/injection, schedule: Q04DX006 (ip), vehicle: saline with Tween-80, higher = longer survival)?
**A.** 100 % of control

**Q.** What about the T/C (endpoint: median survival time, dose: 6.0 mg/kg/injection, schedule: Q04DX006 (ip), vehicle: saline with Tween-80, higher = longer survival) of the same molecule?
**A.** 117 % of control

**Q.** And the T/C (endpoint: median survival time, dose: 12.0 mg/kg/injection, schedule: Q04DX006 (ip), vehicle: saline with Tween-80, higher = longer survival)?
**A.** 124 % of control

**Q.** For `Cc1nc(N)nc(N)c1-c1ccc(Cl)c(Cl)c1`, which T/C (endpoint: median survival time, dose: 1.5 mg/kg/injection, schedule: Q01DX009 (ip), vehicle: normal media, higher = longer survival) is on record?
**A.** 105 % of control

**Q.** With `C1CN1c1nc(N2CC2)nc(N2CC2)n1` as the molecule, how does the T/C (endpoint: mean tumor weight, dose: 0.1 mg/kg/injection, schedule: Q02DX011 (ip), vehicle: Klucel (hydroxypropylcellulose) (HPC), higher = larger tumour) read?
**A.** 76 % of control

**Q.** And the T/C (endpoint: mean tumor weight, dose: 0.2 mg/kg/injection, schedule: Q02DX011 (ip), vehicle: Klucel (hydroxypropylcellulose) (HPC), higher = larger tumour)?
**A.** 25 % of control

**Q.** What about the T/C (endpoint: mean tumor weight, dose: 0.4 mg/kg/injection, schedule: Q02DX011 (ip), vehicle: Klucel (hydroxypropylcellulose) (HPC), higher = larger tumour) of the same molecule?
**A.** 8 % of control

**Q.** What about the T/C (endpoint: median survival time, dose: 0.06 mg/kg/injection, schedule: Q02DX011 (ip), vehicle: saline, higher = longer survival) of the same molecule?
**A.** 100 % of control

**Q.** What about the T/C (endpoint: median survival time, dose: 0.13 mg/kg/injection, schedule: Q02DX011 (ip), vehicle: saline, higher = longer survival) of the same molecule?
**A.** 113 % of control

**Q.** And the T/C (endpoint: median survival time, dose: 0.25 mg/kg/injection, schedule: Q02DX011 (ip), vehicle: saline, higher = longer survival)?
**A.** 100 % of control

**Q.** And the T/C (endpoint: median survival time, dose: 1.0 mg/kg/injection, schedule: Q02DX011 (ip), vehicle: saline, higher = longer survival)?
**A.** 191 % of control

**Q.** `Cc1cc(-c2ccc(NC(=O)Nc3cccc(F)c3)c(C)c2)ccc1NC(=O)Nc1cccc(F)c1` was tested. Which T/C (endpoint: median survival time, dose: 50.0 mg/kg/injection, schedule: Q01DX009 (ip), vehicle: saline with Tween-80, higher = longer survival) did it give?
**A.** 110 % of control

**Q.** What about the T/C (endpoint: median survival time, dose: 100.0 mg/kg/injection, schedule: Q01DX009 (ip), vehicle: saline with Tween-80, higher = longer survival) of the same molecule?
**A.** 102 % of control

**Q.** And the T/C (endpoint: median survival time, dose: 200.0 mg/kg/injection, schedule: Q01DX009 (ip), vehicle: saline with Tween-80, higher = longer survival)?
**A.** 104 % of control

**Q.** What about the T/C (endpoint: median tumor weight (est.), dose: 50.0 mg/kg/injection, schedule: Q01DX009 (ip), vehicle: saline with Tween-80, higher = larger tumour) of the same molecule?
**A.** 107 % of control

**Q.** What about the T/C (endpoint: median tumor weight (est.), dose: 100.0 mg/kg/injection, schedule: Q01DX009 (ip), vehicle: saline with Tween-80, higher = larger tumour) of the same molecule?
**A.** 84 % of control

**Q.** And the T/C (endpoint: median tumor weight (est.), dose: 200.0 mg/kg/injection, schedule: Q01DX009 (ip), vehicle: saline with Tween-80, higher = larger tumour)?
**A.** 70 % of control

**Q.** For `CCOC(=O)C(CC(C)C)NC(=O)C(Cc1ccc(N(CCCl)CCCl)cc1)NC(C)=O` (stereo unspecified), which T/C (endpoint: median survival time, dose: 8.0 mg/kg/injection, schedule: Q01DX009 (ip), vehicle: saline with Tween-80, higher = longer survival) is on record?
**A.** 111 % of control

**Q.** What about the T/C (endpoint: median survival time, dose: 16.0 mg/kg/injection, schedule: Q01DX009 (ip), vehicle: saline with Tween-80, higher = longer survival) of the same molecule?
**A.** 117 % of control and 122 % of control

**Q.** What about the T/C (endpoint: median survival time, dose: 64.0 mg/kg/injection, schedule: Q01DX009 (ip), vehicle: saline with Tween-80, higher = longer survival) of the same molecule?
**A.** 170 % of control

**Q.** And the T/C (endpoint: median tumor weight (est.), dose: 8.0 mg/kg/injection, schedule: Q01DX009 (ip), vehicle: saline with Tween-80, higher = larger tumour)?
**A.** 61 % of control

**Q.** What about the T/C (endpoint: median tumor weight (est.), dose: 16.0 mg/kg/injection, schedule: Q01DX009 (ip), vehicle: saline with Tween-80, higher = larger tumour) of the same molecule?
**A.** 52 % of control

**Q.** And the T/C (endpoint: median tumor weight (est.), dose: 32.0 mg/kg/injection, schedule: Q01DX009 (ip), vehicle: saline with Tween-80, higher = larger tumour)?
**A.** 16 % of control

**Q.** What does the source list for `CC1(CO)C(O)CCC2(C)C1CCC1CC3CC12CCC3(O)CO` (stereo unspecified)?
**A.** T/C (endpoint: median survival time, dose: 23.3 mg/kg/injection, schedule: Q01DX017 (sc), vehicle: Klucel (hydroxypropylcellulose) (HPC), higher = longer survival): 93 % of control; T/C (endpoint: median survival time, dose: 38.9 mg/kg/injection, schedule: Q01DX017 (oral), vehicle: Klucel (hydroxypropylcellulose) (HPC), higher = longer survival): 93 % of control; T/C (endpoint: median survival time, dose: 64.8 mg/kg/injection, schedule: Q01DX017 (ip), vehicle: Klucel (hydroxypropylcellulose) (HPC), higher = longer survival): 124 % of control; T/C (endpoint: median survival time, dose: 64.8 mg/kg/injection, schedule: Q01DX017 (oral), vehicle: Klucel (hydroxypropylcellulose) (HPC), higher = longer survival): 102 % of control and 109 % of control; T/C (endpoint: median survival time, dose: 64.8 mg/kg/injection, schedule: Q01DX017 (sc), vehicle: Klucel (hydroxypropylcellulose) (HPC), higher = longer survival): 163 % of control; T/C (endpoint: median survival time, dose: 77.8 mg/kg/injection, schedule: Q04DX005 (ip), vehicle: Klucel (hydroxypropylcellulose) (HPC), higher = longer survival): 103 % of control; T/C (endpoint: median survival time, dose: 83.7 mg/kg/injection, schedule: Q01DX017 (oral), vehicle: Klucel (hydroxypropylcellulose) (HPC), higher = longer survival): 116 % of control; T/C (endpoint: median survival time, dose: 100.0 mg/kg/injection, schedule: Q03HX003 (sc), vehicle: Klucel (hydroxypropylcellulose) (HPC), higher = longer survival): 106 % of control; T/C (endpoint: median survival time, dose: 100.0 mg/kg/injection, schedule: Q03HX003 (sc), vehicle: saline, higher = longer survival): 102 % of control; T/C (endpoint: median survival time, dose: 108.0 mg/kg/injection, schedule: Q01DX017 (ip), vehicle: Klucel (hydroxypropylcellulose) (HPC), higher = longer survival): 116 % of control; T/C (endpoint: median survival time, dose: 108.0 mg/kg/injection, schedule: Q01DX017 (oral), vehicle: Klucel (hydroxypropylcellulose) (HPC), higher = longer survival): 100 % of control and 118 % of control; T/C (endpoint: median survival time, dose: 108.0 mg/kg/injection, schedule: Q01DX017 (sc), vehicle: Klucel (hydroxypropylcellulose) (HPC), higher = longer survival): 113 % of control and 121 % of control; T/C (endpoint: median survival time, dose: 130.0 mg/kg/injection, schedule: Q04DX005 (ip), vehicle: Klucel (hydroxypropylcellulose) (HPC), higher = longer survival): 103 % of control; T/C (endpoint: median survival time, dose: 139.0 mg/kg/injection, schedule: Q01DX017 (oral), vehicle: Klucel (hydroxypropylcellulose) (HPC), higher = longer survival): 118 % of control; T/C (endpoint: median survival time, dose: 180.0 mg/kg/injection, schedule: Q01DX017 (oral), vehicle: Klucel (hydroxypropylcellulose) (HPC), higher = longer survival): 116 % of control; T/C (endpoint: median survival time, dose: 200.0 mg/kg/injection, schedule: Q03HX003 (sc), vehicle: Klucel (hydroxypropylcellulose) (HPC), higher = longer survival): 98 % of control; T/C (endpoint: median survival time, dose: 200.0 mg/kg/injection, schedule: Q03HX003 (sc), vehicle: saline, higher = longer survival): 100 % of control; T/C (endpoint: median survival time, dose: 216.0 mg/kg/injection, schedule: Q04DX005 (ip), vehicle: Klucel (hydroxypropylcellulose) (HPC), higher = longer survival): 104 % of control; T/C (endpoint: median survival time, dose: 300.0 mg/kg/injection, schedule: Q01DX017 (oral), vehicle: Klucel (hydroxypropylcellulose) (HPC), higher = longer survival): 159 % of control; T/C (endpoint: median survival time, dose: 360.0 mg/kg/injection, schedule: Q04DX005 (ip), vehicle: Klucel (hydroxypropylcellulose) (HPC), higher = longer survival): 106 % of control; T/C (endpoint: median survival time, dose: 600.0 mg/kg/injection, schedule: Q04DX005 (ip), vehicle: Klucel (hydroxypropylcellulose) (HPC), higher = longer survival): 109 % of control
